# Assay results as given in EP0652009A1, “Identification and use of protease inhibitors” (ELI LILLY AND COMPANY, priority 1993, dated 1995).
# Non-standard residues stand in square brackets, D forms with d. Residues, ends and D or L forms follow the SMILES beside them. Sta = CC(C)C[C@H](N)[C@@H](O)CC(=O)O; N(iPr)Gly = CC(C)NCC(=O)O
# Columns and labels:
# βAP production = assay: Assay 4: βAP production inhibition (cellular assay, ELISA of conditioned media, normalised to MTT); assay type: cell-based, human; Chinese hamster; conditions: compound at 10 µg/mL; 293 751 SWE and CHO 751 SWE cells (table does not say which); βAP ELISA divided by MTT result, relative to drug-free control; mean and standard deviation of at least six replicate assays
# Description: The test system used to measure the βAP production inhibition activity is typically a cellular assay or an animal model. Preferably, the βAP production inhibition activity is obtained by direct measurement of βAP production in a cellular assay, as described in WO9410569, the full disclosure of which is incorporated herein by reference. This assay is exemplified in Assay 4, below.
# Two cell lines (human kidney cell line 293 and Chinese hamster ovary cell line CHO) were stably transfected with the gene for APP-751 containing the double mutation Lys₆₅₁-Met₆₅₂ to Asn₆₅₁-Leu₆₅₂ (APP-751 numbering) commonly called the Swedish mutation using the method described in Citron et al., (1992) Nature 360:672-674. The transfected cell lines were designated as 293 751 SWE and CHO 751 SWE, and were plated in Corning 96 well plates at 2.5x10⁴ or 1x10⁴ cells per well respectively in Dulbecco's minimal essential media plus 10% fetal bovine serum. Following overnight incubation at 37°C in an incubator equilibrated with 10% carbon dioxide (CO₂), the media were removed and replaced with 200 µL per well of media containing an aspartyl protease inhibitor. After a two hour pretreatment period, the media were again removed and replaced with fresh media containing the aspartyl protease inhibitor and the cells were incubated for an additional two hours.
# After treatment, plates were centrifuged in a Beckman GPR at 1200 rpm for five minutes at room temperature to pellet cellular debris from the conditioned media. From each well, 100µL of conditioned media were transferred into an ELISA plate precoated with antibody 266 against βAP-13-28 (Seubert et al., supra.) and stored at 4°C overnight. An ELISA assay employing labelled antibody 6C6 (against βAP-1-16) was run the next day to measure the amount of βAP produced.
# Cytotoxic effects of the compounds were measured by a modification of the method of Hansen et al., (1989) J. Immun. Meth. 119:203-210. To the cells remaining in the tissue culture plate, was added 25 µL of a 3,(4,5-dimethylthiazol-2-yl)2,5-diphenyltetrazolium bromide (MTT) stock solution (5 mg/mL) to a final concentration of 1 mg/mL. Cells were incubated at 37°C for one hour, and cellular activity was stopped by the addition of an equal volume of MTT lysis buffer (20% w/v sodium dodecylsulfate in 50% DMF, pH 4.7). Complete extraction was achieved by overnight shaking at room temperature. The difference in the OD562nm and the OD650nm was measured in a Molecular Devices UVmax microplate reader as an indicator of the cellular viability.
# The results of the βAP ELISA were fit to a standard curve and expressed as ng/mL βAP peptide. In order to normalize for cytotoxicity, these βAP results were divided by the MTT results and expressed as a percentage of the results from a drug-free control.
# The compounds prepared above in Examples 9, 12, 13, 20-23, 23A, 24, 30, 41-43, 45, and 48 were assayed for βAP production inhibition activity in cells at 10 µg/mL using Assay 4. The results presented in Assay Table 4, below, are the mean and standard deviation of at least six replicate assays. Assay Table 4
# Human liver cathepsin D = Human liver cathepsin D (Homo sapiens, UniProt P07339); assay: Assay 2: cathepsin D inhibition activity (non-cellular fluorometric assay); assay type: biochemical; design: Human liver cathepsin D (Athens Research and Technology, Athens, GA); purchased Athens Research and Technology, Athens, GA; host or cells: human liver (by the product's printed name)
# Human liver cathepsin D, sequence (P07339 65-412): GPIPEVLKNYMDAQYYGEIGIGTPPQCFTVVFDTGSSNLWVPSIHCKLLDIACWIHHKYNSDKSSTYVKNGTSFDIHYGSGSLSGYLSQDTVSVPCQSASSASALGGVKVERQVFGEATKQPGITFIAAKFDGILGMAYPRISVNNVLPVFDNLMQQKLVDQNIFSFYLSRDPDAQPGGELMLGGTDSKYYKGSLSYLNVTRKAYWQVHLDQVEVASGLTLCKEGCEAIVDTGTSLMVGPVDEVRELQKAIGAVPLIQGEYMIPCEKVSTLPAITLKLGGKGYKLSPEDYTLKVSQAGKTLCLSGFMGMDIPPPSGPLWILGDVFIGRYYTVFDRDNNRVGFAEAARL
# Experimental: A second non-cellular assay for determining in vitro aspartyl protease inhibitory activity utilizes a microtiter plate, where a suitable aspartyl protease, such as cathepsin D is added to each well together with controls. A suitable fluorometric substrate is added to each well. The resultant reaction mixture is allowed to react for a preselected time, e.g., 30 minutes. After enzyme activity is terminated, the substrate or its product may be determined fluorometrically and then the protease inhibition activity may be calculated based on the rates of substrate turnover. This assay is exemplified in Assay 2, below.
# A fluorometric assay was adapted from the method disclosed by Murakami et al., (1981) Anal. Biochem. 110:232-239 for measuring renin activity. Human liver cathepsin D (Athens Research and Technology, Athens, GA) was diluted in assay buffer, 200mM NaOAc, pH 4.5, 150mM NaCl to 500 ng/mL and then 100 µL of this cathepsin D solution was added to each well of a 96 well plate with the exception of control wells which received just 100 µL of assay buffer. Compound stocks were prepared by dissolving an aspartyl protease inhibitor in DMSO for each concentration tested in the assay and then 5 µL of compound stock was added to each of the wells prepared above. Blank and enzyme control wells each received 5 µL of the DMSO vehicle.
# Following a ten minute incubation at 25°C to allow enzyme/compound interaction, 5 µL of 500µM fluorometric substrate (Suc-Arg-Pro-Phe-His-Leu-Leu-Val-Try-AMC [SEQ ID NO:4], Bachem Biosciences, Philadelphia, PA) in DMSO was added per well to initiate the reaction. After incubation at 37°C for 30 minutes, cathepsin D activity was terminated by the addition of 100 µL per well of 400 mU/mL microsomal leucine aminopeptidase (EC 3.4.11.2, Sigma, St. Louis, MO) in 1M Tris-HCl, pH 8.0.
# The plates were then analyzed in a fluorometer (CytoFluor 2350, Millipore, Bedford, MA) with an excitation wavelength of 360nm and an emission wavelength of 460nm, in order to check for background fluorescence due to test compounds. Following a two hour incubation at 37°C, to allow the aminopeptidase to release the fluorophore, 7-amido-4-methylcoumarin (AMC) from the products of cathepsin D cleavage, the plates were again analyzed in the fluorometer. In order to check for potential false positives, i.e., inhibitors of microsomal leucine aminopeptidase, residual aminopeptidase activity was monitored directly in each well by the addition of 20 µL/well of 2.5mM Leu-pNA (Bachem Biosciences, Philadelphia, PA) in 10% DMSO. Aminopeptidase activity was measured as an increase in the absorbance at 405nm in a UVmax microplate reader (Molecular Devices, Menlo Park, CA).
# The compounds prepared in Examples 9, 12, 13, 20-23, 23A, 24, 30, 41-43, 45, and 48 were assayed at 10 µg/mL for cathepsin D inhibition activity using Assay 2. Cathepsin D activity was linear under these conditions and the results are expressed as percent inhibition of the control activity in Assay Table 2, below. All results presented are the mean and standard deviation of at least four replicate assays. Assay Table 2
smiles,measurement,setting,value
"CC(C)C[C@H](NC(=O)[C@@H](NC(=O)[C@@H](NC(=O)CN)C(C)C)C(C)C)[C@@H](O)CC(=O)N[C@@H](C)C(=O)N[C@H](C(=O)O)[C@@H](C)O [Example 43, Gly-Val-Val-Sta-Ala-Thr-OH] (H-GVV[Sta]AT-OH)",βAP Production Inhibition,βAP production,16.2 ± 8.5%
same,inhibition at 10 µg/mL,Human liver cathepsin D,87.9 ± 2.4%
"CC(C)C[C@H](NC(=O)[C@@H](NC(=O)[C@@H](NC(=O)CNC(C)C)C(C)C)C(C)C)[C@@H](O)CC(=O)N[C@@H](C)C(=O)N[C@H](C(=O)O)[C@@H](C)O [Example 42, (CH3)2CH-Gly-Val-Val-Sta-Ala-Thr-OH] (H-[N(iPr)Gly]VV[Sta]AT-OH)",βAP Production Inhibition,βAP production,13.1 ± 7.5%
same,inhibition at 10 µg/mL,Human liver cathepsin D,89.5 ± 1.3%
"Cc1cccc2ccc(C(=O)N[C@@H](CC(N)=O)C(=O)N[C@@H](Cc3ccccc3)[C@H](O)Cc3ccccc3C(=O)NC(C)(C)C)nc12 [Example 9, [1S-(1R*,4R*,5S*)]-N-(1-(2-Amino-2-oxoethyl)-2-oxo-3-aza-4-phenylmethyl-5-hydroxy-6-(2-(1-t-butylamino-1-oxomethyl)phenyl)hexyl)-8-methylquinolin-2-yl carboxamide]",inhibition at 10 µg/mL,βAP production,44.4 ± 7.7%
"Cc1ccc(C(=O)C2NCCc3ccccc32)cc1C(=O)N[C@@H](Cc1ccccc1)[C@H](O)CN1C[C@H]2CCCC[C@H]2C[C@H]1C(=O)NC(C)(C)C (relative stereo) [Example 30, [3S-(3R*,4aR*,8aR*,2'S*,3'R*)]-2-[2'-Hydroxy-3'-phenylmethyl-4'-aza-5'-oxo-5'-(3''-[1''',2''',3''',4'''-tetrahydroisoquinolin-1'''-ylcarbonyl]-6''-methyl)phenyl]pentyl-decahydroisoquinoline-3-N-t-butylcarboxamide]",βAP Production Inhibition,βAP production,69.2 ± 2.2%
"CC[C@H](C)[C@H](NC(=O)C[C@H](O)[C@H](CC(C)C)NC(=O)[C@@H](NC(=O)CNC(C)C)C(C)C)C(=O)N[C@@H](C)C(=O)N[C@H](C(=O)O)[C@@H](C)O [Example 48, (CH3)2CH-Gly-Val-Sta-Ile-Ala-Thr-OH] (H-[N(iPr)Gly]V[Sta]IAT-OH)",βAP Production Inhibition,βAP production,1.6 ± 19.8%
same,inhibition at 10 µg/mL,Human liver cathepsin D,79.9 ± 2.7%
"CC(C)C(NC(=O)C(Cc1cccc2ccccc12)NC(=O)OC(C)(C)C)C(=O)NC(Cc1ccccc1)C(O)Cc1ccccc1C(=O)NC(C)(C)C (stereo not drawn) [Example 24, [2R-(2R*,3S*,6S*,9R*)]-N-t-Butyl-2-[2-hydroxy-3-phenylmethyl-4,7-diaza-5,8-dioxo-6-(1-methylethyl)-9-N(t-butoxycarbonyl)amino-10-naphth-1-yl]decyl benzamide]",βAP Production Inhibition,βAP production,92.7 ± 1.4%
"CC(C)C(NC(=O)C(Cc1cccc2ccccc12)NC(=O)OC(C)(C)C)C(=O)NC(Cc1ccccc1)C(O)Cc1ccccc1C(=O)NC(C)(C)C (stereo not drawn) [Example 23, [2R-(2R*,3S*,6S*,9S*)]-N-t-Butyl-2-[2-hydroxy-3-phenylmethyl-4,7-diaza-5,8-dioxo-6-(1-methylethyl)-9-N(t-butoxycarbonyl)amino-10-naphth-1-yl]decyl benzamide]",inhibition at 10 µg/mL,βAP production,96.3 ± 2.8%
"CC(C)C[C@H](NC(=O)[C@@H](NC(=O)CN)C(C)C)[C@@H](O)CC(=O)N[C@@H](C)C(=O)N[C@H](C(=O)O)[C@@H](C)O [Example 45, Gly-Val-Sta-Ala-Thr-OH] (H-GV[Sta]AT-OH)",βAP Production Inhibition,βAP production,3.3 ± 1.1%
same,inhibition at 10 µg/mL,Human liver cathepsin D,30.6 ± 4.8%
"CC(=O)NCC(=O)N[C@H](C(=O)N[C@H](C(=O)N[C@@H](CC(C)C)[C@@H](O)CC(=O)N[C@@H](C)C(=O)N[C@H](C(=O)O)[C@@H](C)O)C(C)C)C(C)C [Example 41, CH3C(O)-Gly-Val-Val-Sta-Ala-Thr-OH] (Ac-GVV[Sta]AT-OH)",βAP Production Inhibition,βAP production,-6.2 ± 6.2%
same,inhibition at 10 µg/mL,Human liver cathepsin D,98.3 ± 0.1%
